Test results taken from patent US20180371404A1, “METABOLIC ENGINEERING OF MEMBRANE PROTEINS TO IMPROVE ESCHERICHIA COLI MEMBRANE INTEGRITY AND PRODUCTION OF FATTY ACIDS” (priority 2017, published 2018).
Where “and” joins values, the source holds several entries; their conditions need not be identical. Identical values can stand only once.

Assays:
E. coli MG1655 [1] = assay: Octanoic acid tolerance characterization (specific growth rate); assay type: cell-based
Protocol: 2.2 Strain Tolerance Characterization: Octanoic acid tolerance was characterized in 50 ml MOPS defined minimal medium with 2.0% (wt/v) dextrose and 10 mM octanoic acid (1.44 g/L) in 250 ml baffled flasks at 220 rpm and initial pH at 7.0, 30° C. MOPS media contains the following: 8.37 g/L 3-(N-morpholino)propanesulfonic acid (MOPS), 0.72 g/L tricine, 2.92 g/L NaCl, 0.51 g/L NH4Cl, 1.6 g/L KOH, 50 mg/L MgCl2, 48 mg/L K2SO4, 348 mg/L K2HPO4, 0.215 mg/L Na2SeO3, 0.303 mg/L Na2MoO4.2H2O, 0.17 mg/L ZnCl2, 2.5 μg/L FeCl2.4H2O, 0.092 μg/L CaCl2.2H2O, 0.031 μg/L H3BO3, 0.020 μg/L MnCl2.4H2O, 0.0090 μg/L CoCl2.4H2O, and 0.0020 μg/L CuCl2.4H2O [43, 44]. Specific growth rate μ (h-1) was calculated by fitting the equation OD=OD0e^μt over the duration of the exponential growth phase. […] Dry cell weight (DCW) was calculated from the optical density at 550 nm (1 OD550=0.333 g DCW/L).

E. coli MG1655 [2] = assay: Membrane integrity (SYTOX Green, flow cytometry) during C8 challenge; assay type: cell-based
Protocol: Membrane Integrity Characterization: Cells were centrifuged, washed twice, and then resuspended in PBS buffer (pH 7.0) at a final OD550 of ˜1. One hundred microliter (100 μl) of this suspension was mixed with 900 μl of PBS buffer and SYTOX Green (Invitrogen) was added to a final concentration of 5.0 μM. After resting at room temperature for 15 minutes, cells were analyzed by a BD Biosciences FACSCanto II flow cytometer equipped with standard factory-installed 488 nm excitation laser, signal collection optics, and fluorescence emission filter configuration. Instrument sheath fluid was filtered (0.22 μm) PBS buffer. Green fluorescence from stained cells was collected in the FL1 channel (525/50 nm). Forward scatter (FSC), side scatter (SSC), and FL1 (Green) parameters were collected as logarithmic signals. All data collections were performed at low flow rate setting (˜12 μl/min) and cell concentrations were such that the event rate was below 5,000 events/s. All samples were analyzed immediately after staining. Background noise and small debris was eliminated from data collection via a side scatter signal threshold that was established by examining samples containing only SYTOX Green staining buffer. Bacteria in SYTOX Green-stained samples were readily identified on the basis of FSC and SSC signals and an appropriate “Cell” gate was drawn to limit FL1 analysis to bacteria and exclude non-cell events. A minimum of 20,000 cell-gated events were collected for each sample. Green fluorescence data for these “cell” events were plotted as histograms showing the signal distribution of bacteria in the sample [14]. Flow cytometry data for this work is available via Flow Repository (https://flowrepository.org) (FR-FCM-ZY2B).

E. coli MG1655 [3] = settings: 40 mM; cited from earlier work
E. coli BW25113 = settings: up to 20 mM C8, pH 7.0, 37° C.; cited from earlier work
E. coli LY01 = settings: cited from earlier work
BW25113 [4] = settings: 10 vol % hexane in LB at 37° C.; cited from earlier work
BW25113 [5] = settings: phenol at 50-75% of the MIC in LB at 37° C.; cited from earlier work
E. coli Frag1 = settings: 8 mM acetate; cited from earlier work
E. coli KO11 = settings: cited from earlier work

Structure (SMILES): CCCCCCCC(=O)O [C8, octanoic acid]
- specific growth rate (E. coli MG1655 [1]; 10 mM C8, strain Gen-empty): 0.31 h⁻¹
- specific growth rate (E. coli MG1655 [1]; 10 mM C8, strain Gen-fadL): 0.33 h⁻¹
- specific growth rate (E. coli MG1655 [1]; 10 mM C8, strain MG1655, MOPS+2% dextrose, 30° C., initial pH 7.0): 0.31 h⁻¹
- specific growth rate (E. coli MG1655 [1]; 10 mM C8, strain Pla-empty): 0.31 h⁻¹
- specific growth rate (E. coli MG1655 [1]; 10 mM C8, strain Pla-fadL): 0.33 h⁻¹ and 0.32 h⁻¹
- specific growth rate (E. coli MG1655 [1]; 10 mM C8, strain ΔfadL): 0.27 h⁻¹
- specific growth rate (E. coli MG1655 [1]; 10 mM C8, strain ΔompF+Pla-fadL): 0.36 h⁻¹
- specific growth rate, higher than control (E. coli MG1655 [1]; 10 mM C8, ΔompF+Pla-fadL vs Pla-empty): 18%
- specific growth rate, higher than individual increased expression of fadL (E. coli MG1655 [1]; 10 mM C8, ΔompF+Pla-fadL vs Pla-fadL): 12%
- specific growth rate, higher than individual deletion of ompF (E. coli MG1655 [1]; 10 mM C8, ΔompF+Pla-fadL vs ΔompF+Pla-empty): 10%
- specific growth rate, higher than control (E. coli MG1655 [1]; C8 challenge, Gen-fadL vs Gen-empty): 7%
- specific growth rate, higher than control (E. coli MG1655 [1]; C8 challenge, Pla-fadL vs Pla-empty): 8%
- specific growth rate, lower than MG1655 (E. coli MG1655 [1]; C8 challenge, ΔfadL vs MG1655): 12%
- specific growth rate, higher than MG1655 (E. coli MG1655 [1]; C8 challenge, ΔompF vs MG1655): 7%
- increase in membrane integrity (E. coli MG1655 [2]; 10 mM C8, Gen-fadL vs Gen-empty): 14%
- increase in membrane integrity (E. coli MG1655 [2]; 10 mM C8, Pla-fadL vs Pla-empty): 25%
- percentage of cells with intact membranes, lower than MG1655 (E. coli MG1655 [2]; 10 mM C8, ΔfadL vs MG1655): 23%
- increase in percentage of cells with intact membranes (E. coli MG1655 [2]; 10 mM C8, ΔompF vs wild-type control strain): 18%
- increase in percentage of cells with intact membranes (E. coli MG1655 [2]; C8 challenge, ΔompF+Pla-fadL vs Pla-empty): 37%
- growth inhibition (E. coli MG1655 [3]): completely inhibitory
- magnitude of intracellular acidification on deletion of ompF (E. coli BW25113): assessed via the maximum OD. Deletion of ompF decreased the magnitude

Structure (SMILES): O=Cc1ccco1 [Furfural]
- concentration that inhibits growth completely (E. coli LY01): 3.5 g/L

Structure (SMILES): CCCCCC [Hexane]
- survival (assessed by OD) on deletion of fadL (BW25113 [4]): Deletion of fadL from BW25113 increased survival, as assessed by OD

Structure (SMILES): Oc1ccccc1 [Phenol]
- survival on deletion of fadL (BW25113 [5]): Deletion of fadL from BW25113 had no impact on survival

Structure (SMILES): CC(=O)O [acetate]
- reduction of specific growth rate (E. coli Frag1): 50%

Structure (SMILES): CCO [ethanol]
- growth (E. coli KO11; 35 g/L ethanol, engineered E. coli KO11): grows poorly
- cells surviving challenge (E. coli KO11; 100 g/L ethanol, KO11): less than 10%

Structure (SMILES): CCCCCC(=O)O [hexanoic acid]
- growth inhibition (E. coli MG1655 [3]): completely inhibitory
